Reference: patent US20120156314A1, “11 beta, 13-DIHYDROHELENALIN DERIVATIVES AND USES THEREOF AS BOMBESIN RECEPTOR SUBTYPE 3 AGNOISTS” (VIOGENE-BIOTEK CORPORATION, priority 2010, published 2012)
pEC50: −log10 of the molar value. Read-outs that look alike come from different tables or passages of the source.

Experiments:
human BRS3 = molecular target: T1, human BRS3 (Homo sapiens, UniProt P32247); assay: Cytosolic Ca++ mobilization assay in U2OS cells expressing BRS3; assay type: cell-based; conditions: for magnitude of released calcium and time to reach the peak of the transient: dose response
T1 construct: expressed in transfected cells; host or cells: U2OS
T1 sequence (P32247 1-399): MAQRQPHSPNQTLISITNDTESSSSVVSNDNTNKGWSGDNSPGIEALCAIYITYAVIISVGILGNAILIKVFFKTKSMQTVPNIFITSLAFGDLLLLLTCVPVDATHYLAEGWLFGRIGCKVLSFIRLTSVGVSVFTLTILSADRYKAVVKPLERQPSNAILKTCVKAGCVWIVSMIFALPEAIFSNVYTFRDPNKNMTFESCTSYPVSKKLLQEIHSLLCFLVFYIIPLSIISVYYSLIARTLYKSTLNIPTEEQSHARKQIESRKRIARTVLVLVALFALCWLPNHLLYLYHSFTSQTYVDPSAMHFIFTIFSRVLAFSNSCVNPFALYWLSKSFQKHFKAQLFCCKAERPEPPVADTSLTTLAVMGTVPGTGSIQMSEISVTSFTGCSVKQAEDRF
Protocol: Fluorescence was measured at dual excitation wavelengths of 340 nm and 380 nm, using an emission wavelength of 510 nm. Autofluorescence was corrected for by running a sample of unlabeled cells in identical experimental conditions.

BRS3 = BRS3 (Homo sapiens, UniProt P32247); assay: cell-based
Source text: Formation of the arrestin-receptor complex occurred as the agonist bind to the receptor and it is able to trace the translocation of this complex from plasma membrane to cytoplasm in a form of endocytoplamic vesicles. Monitoring the distribution and translocation of GFP-labeled arrestin in cell expressing BRS3, we are able to measure the ability of the crude extracts to activate BRS3.

[1] = system: U2OS cells that does not express BRS3
Protocol: After two washes with assay buffer, 2 ml of cell suspension were placed in a Delta PTI Scan 1 spectrofluorimeter (Photon Technology International, South Brunswick, N.J.) equipped with a stir bar and water bath (37° C.). Fluorescence was measured at dual excitation wavelengths of 340 nm and 380 nm, using an emission wavelength of 510 nm. Autofluorescence was corrected for by running a sample of unlabeled cells in identical experimental conditions.

GRPR = GRPR (Homo sapiens, UniProt P30550); assay: cell-based; conditions: Table 6
GRPR, sequence (P30550 whole entry, species assumed): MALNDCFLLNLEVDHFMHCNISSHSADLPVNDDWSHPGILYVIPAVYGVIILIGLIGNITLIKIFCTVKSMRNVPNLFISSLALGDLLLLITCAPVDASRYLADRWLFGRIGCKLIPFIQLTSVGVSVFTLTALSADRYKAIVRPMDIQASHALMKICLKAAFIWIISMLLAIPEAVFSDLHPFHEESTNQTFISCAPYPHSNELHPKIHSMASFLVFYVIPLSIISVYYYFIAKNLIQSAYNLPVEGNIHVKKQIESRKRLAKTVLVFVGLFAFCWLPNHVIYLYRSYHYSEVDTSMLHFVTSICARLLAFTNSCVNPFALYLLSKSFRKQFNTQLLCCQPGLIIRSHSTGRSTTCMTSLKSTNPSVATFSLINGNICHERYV

NMBR = NMBR (Homo sapiens, UniProt P28336); assay: cell-based; conditions: Table 6
NMBR, sequence (P28336 whole entry, species assumed): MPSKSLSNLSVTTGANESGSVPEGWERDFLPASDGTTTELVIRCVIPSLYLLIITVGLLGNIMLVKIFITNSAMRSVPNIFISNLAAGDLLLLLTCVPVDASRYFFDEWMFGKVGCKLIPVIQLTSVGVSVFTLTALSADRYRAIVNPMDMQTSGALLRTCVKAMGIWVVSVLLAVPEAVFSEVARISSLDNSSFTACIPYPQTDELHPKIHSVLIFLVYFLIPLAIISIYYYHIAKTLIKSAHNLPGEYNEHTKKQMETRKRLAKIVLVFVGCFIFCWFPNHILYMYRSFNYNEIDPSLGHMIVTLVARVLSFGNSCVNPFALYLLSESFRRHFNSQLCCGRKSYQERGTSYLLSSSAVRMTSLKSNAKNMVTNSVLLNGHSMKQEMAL

[2] = Table 5, U2OS cells expressing human BRS3, read-out: EC50 Ca++

SMILES	pEC50 (human BRS3)	pEC50 (BRS3; EC50 Arrestin, Table 5)	time of return of cytosolic calcium to basal levels (human BRS3; 6.8 μg/ml) [min]	time to maximal level of cytosolic calcium (human BRS3; 6.8 μg/ml) [s]	magnitude of released calcium and time to reach the peak of the transient (human BRS3)	cytosolic Ca++ release in cells without BRS3 [1]	pEC50 (BRS3; EC50 BRS3, Table 6)	pEC50 (GRPR)	pEC50 (NMBR)	pEC50 (human BRS3; [2])	time of return of cytosolic calcium to basal levels (human BRS3; 25 μg/ml) [min]	time to maximal level of cytosolic calcium (human BRS3; 25 μg/ml) [s]
C=C(C)C(=O)O[C@H]1[C@H]2[C@@H](C[C@@H](C)[C@@H]3C=CC(=O)[C@]31C)OC(=O)[C@@H]2C [Compound 1, Arnicolide D]	5.00	5.55										
CC(C)C(=O)O[C@H]1[C@H]2[C@@H](C[C@@H](C)[C@@H]3C=CC(=O)[C@]31C)OC(=O)[C@@H]2C [Compound 2, Arnicolide C]	4.92	5.55										
CC=C(C)C(=O)OC1C2C(CC(C)C3C=CC(=O)C31C)OC(=O)C2C (centres unmarked) [Compound 3, Microhelenin C]	4.96	5.70										
CCC(C)C(=O)O[C@H]1[C@H]2[C@@H](C[C@@H](C)C3C=CC(=O)[C@]31C)OC(=O)[C@@H]2C (some centres unmarked) [Compound 4, Microhelenin B]	5.38	5.63	1	13	concentration-dependent and saturable	not able to stimulated cytosolic Ca^++ release	5.43	< 3.07	< 3.07			
CC(C)CC(=O)O[C@H]1[C@H]2[C@@H](C[C@@H](C)[C@@H]3C=CC(=O)[C@]31C)OC(=O)[C@@H]2C [Compound 5, Arnicolide B]	4.70	5.12										
CCC(C)C(=O)O[C@H]1[C@@H]2[C@H](C)C(=O)O[C@@H]2C[C@@H](C)C2[C@@H](O)CC(=O)[C@]21C (some centres unmarked) [Compound A, arnifoline]		5.57			concentration-dependent and saturable		5.56	< 2.87	< 2.87	5.59		
CCC(C)C(=O)O[C@H]1[C@@H]2[C@H](C)C(=O)O[C@@H]2C[C@@H](C)C2[C@@H](C)CC(=O)[C@]21C (stereo partly drawn) [Compound B, 11α-13-dihydroarnifolin B]		4.85			concentration-dependent and saturable	not able to stimulated cytosolic Ca^++ release	4.86	< 3.16	< 3.08	5.02	1	13
